Values of other authors as cited in patent EP3027215B1, “POWDER FORMULATION OF VALGANCICLOVIR” (Ali Raif Ilaç Sanayi ve Ticaret Anonim Sirketi, priority 2013, dated 2015).

How the values were obtained:
[1] = at pH 7.0
[2] = solid form, stored under room temperature conditions

n-octanol-water partition coefficient [1]: 0.0095 | physical, chemical, and light stability [2]: acceptable
Compound: CC(C)[C@H](N)C(=O)OCC(CO)OCn1cnc2c(=O)[nH]c(N)nc21.Cl (stereo partly drawn) [Valganciclovir hydrochloride, L-Valine, 2-[(2-amino-1,6-dihydro-6-oxo-9H-purin-9-yl)methoxy]-3-hydroxypropyl ester, monohydrochloride]
